In series [1] the test system is HTLV-III. Briefly: Anti-AIDS activity, infected cell rate of MT-4 cells infected with HTLV-III at 6th day. Format: cell-based. To be noted: for anti-AIDS virus activity: MT-4 cells, HTLV-III. The method, then: (§1) To MT-4 cells (30×10^4 /ml) cultured in RPMI-1640 medium containing 10% bovine serum, was inoculated HTLV-III, and the suspension was incubated at 37° C. for 1 hour to cause the adsorption of the virus. The cell:virus ratio was 500:1. The cells were then washed, and cultured with or without various doses of the test substances (same as those of Example 1) at 37° C. under 5% CO2 for 3 days, after which cell growth, viability, and percentage of infected cells were recorded. The infected cells were distinguished from the uninfected cells by indirect immuno-fluorescence method. Thus; the cultured cells were fixed with cold methanol on a slide glass, reacted with antibody to the HTLV-III-specific antigens, and further with the secondary antibody (having fluorescent label). The results are shown in FIGS. 9-29, wherein, , and show the controls without virus; , and show the infection experiments with HTLV-III. The cell growth is indicated in number of cells, the viability (%) in number of viable cells×100/number of total cells, and the infected cell rate (%) in number of fluorescent-positive cells×100/number of total cells.
In order to examine the correlation between the anti-AIDS virus activity and the molecular structure (especially, molecular weight and S-content or number of sulfate group in this case) of various test substances including those used in Examples 1-7, the anti-AIDS activities were evaluated for the various naturally occurring polysaccharides, polysaccharides having sulfate group, mucopolysaccharides, mucopolysaccharide sulfate, and mucopolysaccharide polysulfate. Further, similar experiments were carried out with various other sulfates which were synthetically obtained. The experimental procedures employed are identical to that in preceding experiments. The cultured MT-4 cells were infected with HTLV-III and the inhibitory effects of various test subsutances on the infected cell rate (number of fluorescent cell×100/ total cell, %) were determined at 6th day.

Series [2] concerns reverse transcriptase (authentic sample) derived from Avian Myeloblastosis Virus. Kind of series: Inhibition of reverse transcriptase activity (AMV). Format: biochemical. Conditions: AMV enzyme; 1, 0.1 and 0.01 μg/ml. Here is the method: Test substances were assayed for inhibition against the enzyme activity of reverse transcriptase (authentic sample) derived from Avian Myeloblastosis Virus (abbrev. AMV), a kind of retrovirus. Five microliters of […] (template RNA), 4 μl of (dT)12-18 (primer DNA), and 1 μl of water were mixed with 5 μl of 0.5M Tris-CHl (pH 8.4) including 0.1% triton X-100, 5 μl of […], 5 μl of 20 mM-DDT, 5 μl of water, and [^3 H]-TTP (tritium labeled thymidine triphosphate). To this mixture, test substances in solutions (final concentrations: 1, 0.1, and 0.01 μg/ml, 5 μl) or buffer solutions (control, 5 μl) at various doses were added. Then, 5 μl (one unit) of the authentic reverse transcriptase derived from AMV was added and the reaction mixture was incubated at 37° C. for 30 minutes. The reaction was stopped by addition of trichloroacetic acid, and after filtering the reaction mixture, the radioactivity of the polymerized (^3 H-T)n retained on the filter was measured using a liquid scintillation counter. As the test substances, sodium dextran sulfate (molecular weight: 5000), same (molecular weight: 8000), same (molecular weight: 500000), fucoidin, κ-carrageenan, λ-carrageenan, and .iota.-carrageenan were used.
The effects of the test substances on the reverse transcriptase activity of AMV were evaluated by the method described in Example 1.

A short description of series [3]: Acute toxicity (LD50) in mice. Type of series: in vivo.
Series [4] relates to HTLV-III. Briefly: Anti-AIDS virus activity, MT-4 cells infected with HTLV-III, 3 days. Format: cell-based. Conditions: increasing dose. The method, then: as §1
Test substances were assayed for the anti-AIDS virus activity in the same manner as in Example 3 using cell culture. The test substances are the same as those used in Example 5. […]
The anti-AIDS virus activity of heparin was evaluated in the same manner as in Example 3. […]

Series [5] concerns reverse transciptase of simian sarcoma virus. Conditions: in vitro; Cancer Research, 38, 2401-2407; cited from earlier work.
For series [6], the system named is DNA polymerase of phytohemagglutinin stimulated human lymphocytes. Conditions: in vitro; Cancer Research, 38, 2401-2407; cited from earlier work.
The test system of series [7] is disrupted HTLV-III virions as a crude reverse transcriptase. Kind of series: Inhibition of reverse transcriptase activity (disrupted HTLV-III virions). Type of series: biochemical. To be noted: crude enzyme from HTLV-III virions.
[8] abbreviates: 10 μg/ml, 6th day, control 100%.
The mark [9] stands for this setting: 100 μg/ml, 6th day, control 100%.

Turning to Chondroitin polysulfate, the entries for the “Infected cell (%)” value in series [1] (setting [8]) and in series [1] (setting [9]) were 3% and 1%, respectively. In addition, in series [1] (6th day), the anti-AIDS virus activity entry is listed as “particularly strong anti-AIDS virus activities”. Also, the “reverse transcriptase inhibition activity” value in series [2] is on record as “stronger activity than the natural substances”.
As for Heparin, the “Infected cell (%)” value in series [1] (setting [8]) turned out to be 41%; in series [1] (setting [9]), 1%. Besides, in series [1] (6th day), the anti-AIDS virus activity result is given as “particularly strong anti-AIDS virus activities”. Moreover, in series [3] (intravenously), the “acute toxicity (LD50)” value is 1,500-2,000 mg/kg. The “cell growth and viability of MT-4 cells infected with HTLV-III” value in series [4] is “the number of cells and viability were maintained to that of control”. In series [4] (indirect immunofluorescence), the infected cell rate result is reported as “less susceptible to the viral infection”. The “inhibition of reverse transcriptase of simian sarcoma virus” value in series [5] is recorded as “inhibit”. The “inhibition of DNA polymerase of phytohemagglutinin stimulated human lymphocytes” value in series [6] is “inhibit”.
For “Sodium dextran sulfate [Sodium dextran sulfate (molecular weight: 7000-8000, S-conte]”, the “reverse transcriptase inhibitory effect” value in series [7] was “has an inhibitory effect”. In addition, the “Infected cell (%)” value came out at 1% in series [1] (10 μg/ml, 6th day; control 100%; S-content 17-20), 8640 min) and 0% in series [1] (setting [9]). Also, the results for the “acute toxicity (LD50)” value in series [3] (intravenously) and in series [3] (orally) were 4,500 mg/kg and 21,000 mg/kg, respectively.
Take keratan polysulfate: in series [2], the “reverse transcriptase inhibition activity” value is recorded as “stronger activity than the natural substances”.
Turning to sodium chondroitin sulfate, the “acute toxicity (LD50)” value in series [3] (intraperitoneally) is listed as ≥ 4,000 mg/kg; in series [3] (orally), ≥ 7,500 mg/kg.

These data come from patent publication US4840941A, “Method for inhibiting infection of human T-cells” (Kabushiki Kaisha Ueno Seiyaku Oyo Kenkyujo, priority 1986, dated 1989).
